The test addresses FABP4 (Homo sapiens, UniProt P15090). Nature of the test: TdF (Temperature Dependence Fluorescence) assay, thermal shift, FABP4. It counts as binding. In a few lines:
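Binding measured as ΔTm versus protein alone; binding constants derived by nonlinear fitting with ΔHL set to −7 kcal/mol and ΔCpL to zero.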

This note sets out measurements from patent US8815875B2 (Merck Sharp & Dohme Corp., priority 2008, dated 2014).

Molecules are shown by their SMILES. pKd: −log10 of the molar value.

Sequence of FABP4 (P15090 whole entry, species assumed): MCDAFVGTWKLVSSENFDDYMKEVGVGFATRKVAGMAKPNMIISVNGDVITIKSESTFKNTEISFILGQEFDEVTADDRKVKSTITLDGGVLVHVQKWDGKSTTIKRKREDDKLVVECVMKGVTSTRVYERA

Consider `COCC1(CNC(=O)c2ccccc2OCc2cc(=O)n3nc(-c4ccccc4)nc3[nH]2)CC1` [47-64], for which the “FABP4 TdF Kd” value is “B (0.5 ≦ B < 0.001 μM)”.

As to `O=C(NCC1(CO)CC1)c1ccccc1OCc1cc(=O)n2nc(-c3ccccc3)nc2[nH]1` [47-65], the “FABP4 TdF Kd” value is “B (0.5 ≦ B < 0.001 μM)”.

For the compound `O=C(O)C1(OCc2cc(=O)n3nc(-c4ccccc4)nc3[nH]2)CCCCC1` [48-2, 1-((7-oxo-2-phenyl-4,7-dihydro-[1,2,4]triazolo[1,5-a]pyrimidin-5-yl)methoxy)cyclohexanecarboxylic acid], the pKd is below 6.30.

As to `O=C(N1CCS(=O)(=O)CC1)C1(OCc2cc(=O)n3nc(-c4ccccc4)nc3[nH]2)CCCCC1` [48-4, 4-[[1-[(4,7-dihydro-7-oxo-2-phenyl[1,2,4]triazolo[1,5-a]pyrimidin-5-yl)methoxy]cyclohexyl]carbonyl]thiomorpholine, 1,1-dioxide], the pKd is below 6.30.

As for `COC[C@@H]1CCCN1C(=O)C1(OCc2cc(=O)n3nc(-c4ccccc4)nc3[nH]2)CCCCC1` [48-5, (S)-5-((1-(2-(methoxymethyl)pyrrolidine-1-carbonyl)cyclohexyloxy)methyl)-2-phenyl-[1,2,4]triazolo[1,5-a]pyrimidin-7(4H)-one], the pKd is below 6.30.

With `COC[C@H]1CCCN1C(=O)C1(OCc2cc(=O)n3nc(-c4ccccc4)nc3[nH]2)CCCCC1` [48-6, (R)-5-((1-(2-(methoxymethyl)pyrrolidine-1-carbonyl)cyclohexyloxy)methyl)-2-phenyl-[1,2,4]triazolo[1,5-a]pyrimidin-7(4H)-one], the “FABP4 TdF Kd” value is “B (0.5 ≦ B < 0.001 μM)”.

Turning to `O=C(N1C[C@@H]2C[C@@H]2[C@H]1CO)C1(OCc2cc(=O)n3nc(-c4ccccc4)nc3[nH]2)CCCCC1` [48-7, 5-((1-((1S,2S,5R)-2-(hydroxymethyl)-3-azabicyclo[3.1.0]hexane-3-carbonyl)cyclohexyloxy)methyl)-2-phenyl-[1,2,4]triazolo[1,5-a]pyrimidin-7(4H)-one], the “FABP4 TdF Kd” value is reported as “B (0.5 ≦ B < 0.001 μM)”.

For `O=C(NC1(c2ccccc2Cl)CC1)C1(OCc2cc(=O)n3nc(-c4ccccc4)nc3[nH]2)CCCCC1` [48-8], the pKd is at least 9.00.

For `O=C(NC1(c2cccc(Cl)c2)CC1)C1(OCc2cc(=O)n3nc(-c4ccccc4)nc3[nH]2)CCCCC1` [48-9, N-(1-(3-chlorophenyl)cyclopropyl)-1-((7-oxo-2-phenyl-4,7-dihydro-[1,2,4]triazolo[1,5-a]pyrimidin-5-yl)methoxy)cyclohexanecarboxamide], the pKd was at least 9.00.

With `O=C(NC1(c2cccc(Cl)c2F)CC1)C1(OCc2cc(=O)n3nc(-c4ccccc4)nc3[nH]2)CCCCC1` [48-10], the pKd is at least 9.00.

Regarding `O=C(NCC1(CO)CCC1)C1(OCc2cc(=O)n3nc(-c4ccccc4)nc3[nH]2)CCCCC1` [48-11], the pKd is at least 9.00.

For `COc1ccccc1C1(CNC(=O)C2(OCc3cc(=O)n4nc(-c5ccccc5)nc4[nH]3)CCCCC2)CC1` [48-12, N-((1-(2-methoxyphenyl)cyclopropyl)methyl)-1-((7-oxo-2-phenyl-4,7-dihydro-[1,2,4]triazolo[1,5-a]pyrimidin-5-yl)methoxy)cyclohexanecarboxamide], the pKd is at least 9.00.

`COc1ccccc1C1(NC(=O)C2(OCc3cc(=O)n4nc(-c5ccccc5)nc4[nH]3)CCCCC2)CC1` [48-13, N-(1-(2-methoxyphenyl)cyclopropyl)-1-((7-oxo-2-phenyl-4,7-dihydro-[1,2,4]triazolo[1,5-a]pyrimidin-5-yl)methoxy)cyclohexanecarboxamide]: the pKd was at least 9.00.

In the case of `O=C(NCC1(c2ccccc2Cl)CC1)C1(OCc2cc(=O)n3nc(-c4ccccc4)nc3[nH]2)CCCCC1` [48-14], the “FABP4 TdF Kd” value is “B (0.5 ≦ B < 0.001 μM)”.

Regarding `O=C(NCC1(CO)CCCC1)C1(OCc2cc(=O)n3nc(-c4ccccc4)nc3[nH]2)CCCCC1` [48-15, N-((1-(hydroxymethyl)cyclopentyl)methyl)-1-((7-oxo-2-phenyl-4,7-dihydro-[1,2,4]triazolo[1,5-a]pyrimidin-5-yl)methoxy)cyclohexanecarboxamide], the pKd was at least 9.00.

As a reminder, the pKd is −log10 of the Kd, conventionally taken in molar units.
